Results on 25 compounds are retold here after patent publication US20240208956A1, “1,3,4-OXADIAZOLE THIOCARBONYL COMPOUNDS AS HISTONE DEACETYLASE 6 INHIBITOR, AND PHARMACEUTICAL COMPOSITION COMPRISING THE SAME” (CHONG KUN DANG PHARMACEUTICAL CORP., priority 2021, published 2024).

For assay [1], the target named is HDAC1 (Homo sapiens (Human), UniProt Q13547). Briefly: HDAC enzyme activity inhibition (in vitro), HDAC1 Fluorimetric Drug Discovery Assay Kit. The conditions noted are these: samples at 100, 1000 and 10000 nM; 37° C. 60 minutes; fluorescence Ex 390 nm, Em 460 nm. The class given is biochemical. As to the method:
Experimental Example 1. Confirmation of HDAC Enzyme Activity Inhibition (In Vitro)
(§1) An HDAC enzyme inhibitory capacity of test material was measured by using HDAC1 Fluorimetric Drug Discovery Assay Kit (Enzolifesciences: BML-AK511) and HDAC6 human recombinant (Calbiochem: 382180). For a HDAC1 assay, samples were treated at a concentration of 100 nM, 1000 nM and 10000 nM. For an HDAC6 assay, samples were treated at a concentration of 0.1 nM, 1 nM, 10 nM, 100 nM and 1000 nM. After the sample treatment, a reaction was continued at 37° C. for 60 minutes, treated with a developer, and subjected to reaction at 37° C. for 30 minutes, after which fluorescence intensity (Ex 390 nm, Em 460 nm) was measured by using FlexStation3 (Molecular device). For final result values, each […] value was calculated with GraphPad Prism 4.0 program.

Assay [2] addresses HDAC6 human recombinant (Homo sapiens (Human), UniProt Q9UBN7). As to the kind of experiment: HDAC enzyme activity inhibition (in vitro), HDAC6 fluorimetric assay. The class given is biochemical. The settings on record: samples at 0.1-1000 nM; 37° C. 60 minutes; fluorescence Ex 390 nm, Em 460 nm. As to the method:
Confirmation of HDAC Enzyme Activity Inhibition (In Vitro)
as §1

Sequence of HDAC1 (Q13547 whole entry): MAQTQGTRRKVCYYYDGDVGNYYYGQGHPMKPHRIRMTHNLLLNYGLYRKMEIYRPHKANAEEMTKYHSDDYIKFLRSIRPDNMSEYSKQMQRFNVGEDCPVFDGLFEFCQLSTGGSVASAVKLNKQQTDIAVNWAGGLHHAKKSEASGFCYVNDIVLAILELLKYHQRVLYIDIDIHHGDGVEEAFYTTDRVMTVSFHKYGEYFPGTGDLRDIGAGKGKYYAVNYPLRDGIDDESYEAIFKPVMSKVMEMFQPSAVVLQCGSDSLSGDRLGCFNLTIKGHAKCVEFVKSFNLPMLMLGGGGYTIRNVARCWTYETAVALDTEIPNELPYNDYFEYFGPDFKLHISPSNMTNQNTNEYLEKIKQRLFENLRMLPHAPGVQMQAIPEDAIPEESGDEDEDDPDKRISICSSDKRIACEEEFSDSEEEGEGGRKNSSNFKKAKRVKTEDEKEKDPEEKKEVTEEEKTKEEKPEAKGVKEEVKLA
Sequence of HDAC6 human recombinant (Q9UBN7 whole entry): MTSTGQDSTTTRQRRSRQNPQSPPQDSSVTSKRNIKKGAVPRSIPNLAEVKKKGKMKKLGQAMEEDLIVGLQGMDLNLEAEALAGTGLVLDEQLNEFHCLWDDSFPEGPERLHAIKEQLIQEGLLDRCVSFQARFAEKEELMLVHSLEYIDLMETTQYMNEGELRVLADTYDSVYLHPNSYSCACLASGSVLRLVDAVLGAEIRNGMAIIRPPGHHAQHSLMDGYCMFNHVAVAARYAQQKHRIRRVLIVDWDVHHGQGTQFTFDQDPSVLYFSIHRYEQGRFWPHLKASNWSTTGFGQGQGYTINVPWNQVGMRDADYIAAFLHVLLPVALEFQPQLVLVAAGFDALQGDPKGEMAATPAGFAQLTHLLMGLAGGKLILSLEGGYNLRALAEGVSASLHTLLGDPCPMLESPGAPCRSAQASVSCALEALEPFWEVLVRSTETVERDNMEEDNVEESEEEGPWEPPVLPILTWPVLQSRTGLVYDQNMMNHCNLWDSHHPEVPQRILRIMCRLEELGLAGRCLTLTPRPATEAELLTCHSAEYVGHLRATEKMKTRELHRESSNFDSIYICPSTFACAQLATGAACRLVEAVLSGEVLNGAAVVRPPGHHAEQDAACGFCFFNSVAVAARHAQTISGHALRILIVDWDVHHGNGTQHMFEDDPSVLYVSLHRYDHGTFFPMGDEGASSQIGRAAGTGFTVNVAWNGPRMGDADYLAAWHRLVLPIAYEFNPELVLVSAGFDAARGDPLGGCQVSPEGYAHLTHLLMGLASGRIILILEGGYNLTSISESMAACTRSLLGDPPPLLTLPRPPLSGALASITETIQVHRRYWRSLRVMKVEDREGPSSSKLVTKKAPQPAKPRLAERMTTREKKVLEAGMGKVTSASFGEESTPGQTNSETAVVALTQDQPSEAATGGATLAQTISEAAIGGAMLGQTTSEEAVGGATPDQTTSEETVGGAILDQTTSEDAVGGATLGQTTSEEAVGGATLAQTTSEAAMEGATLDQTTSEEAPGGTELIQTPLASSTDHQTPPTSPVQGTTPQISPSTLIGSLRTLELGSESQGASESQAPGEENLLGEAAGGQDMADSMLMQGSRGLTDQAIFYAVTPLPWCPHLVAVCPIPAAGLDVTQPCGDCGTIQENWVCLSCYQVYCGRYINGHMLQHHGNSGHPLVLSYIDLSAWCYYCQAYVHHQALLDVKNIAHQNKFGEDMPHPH

`Fc1cc(-c2nnc(C(F)F)o2)ccc1CN(C(=S)N1CCOCC1)c1ccccc1` [Compound 1, N-(4-(5-(difluoromethyl)-1,3,4-oxadiazol-2-yl)-2-fluorobenzyl)-N-phenylmorpholin-4-carbothioamide]: the IC50 in assay [1] was over 10 µM. Turning to `FC(F)c1nnc(-c2ccc(CN(C(=S)N3CCOCC3)c3ccccc3)nc2)o1` [Compound 2, N-((5-(5-(difluoromethyl)-1,3,4-oxadiazol-2-yl)pyridin-2-yl)methyl)-N-phenylmorpholin-4-carbothioamide], the IC50 is 66 nM in assay [2] and over 10 µM in assay [1]. For `FC(F)c1nnc(-c2ccc(CN(C(=S)N3CCOCC3)c3ccccc3)cc2)o1` [Compound 3, N-(4-(5-(difluoromethyl)-1,3,4-oxadiazol-2-yl)benzyl)-N-phenylmorpholin-4-carbothioamide], the IC50 in assay [2] was 37 nM; in assay [1], over 10 µM.

As to `CN1CCN(C(=S)N(Cc2ccc(-c3nnc(C(F)F)o3)cc2)c2ccccc2)CC1` [Compound 4, N-(4-(5-(difluoromethyl)-1,3,4-oxadiazol-2-yl)benzyl)-4-methyl-N-phenylpiperazin-1-carbothioamide], the IC50 was 37 nM in assay [2] and over 10 µM in assay [1].

For `FC(F)c1nnc(-c2ccc(CN(C(=S)N3CCN(C4COC4)CC3)c3ccccc3)cc2)o1` [Compound 5, N-(4-(5-(difluoromethyl)-1,3,4-oxadiazol-2-yl)benzyl)-4-(oxetan-3-yl)-N-phenylpiperazin-1-carbothioamide], the IC50 in assay [2] is 37 nM; in assay [1], over 10 µM.

On to `O=S1(=O)CCN(C(=S)N(Cc2ccc(-c3nnc(C(F)F)o3)cn2)c2ccccc2)CC1` [Compound 6, N-((5-(5-(difluoromethyl)-1,3,4-oxadiazol-2-yl)pyridin-2-yl)methyl)-N-phenylthiomorpholin-4-carbothioamide 1,1-dioxide], for which the results for the half-maximal inhibitory concentration (IC50) in assay [2] and in assay [1] were 31 nM and over 10 µM, respectively. As to `CN1CCN(C(=S)N(Cc2ccc(-c3nnc(C(F)F)o3)cc2F)c2ccccc2)CC1` [Compound 7, N-(4-(5-(difluoromethyl)-1,3,4-oxadiazol-2-yl)-2-fluorobenzyl)-4-methyl-N-phenylpiperazin-1-carbothioamide], in assay [1], the IC50 is over 10 µM. For the compound `CN1CCC2(CC1)CC(C(=S)N(Cc1ccc(-c3nnc(C(F)F)o3)cc1F)c1ccccc1)C2` [Compound 8, N-(4-(5-(difluoromethyl)-1,3,4-oxadiazol-2-yl)-2-fluorobenzyl)-7-methyl-N-phenyl-7-azaspiro[3.5]nonan-2-carbothioamide], the IC50 was 75 nM in assay [2] and over 10 µM in assay [1]. In the case of `Fc1cc(-c2nnc(C(F)F)o2)ccc1CN(C(=S)c1ccncc1)c1ccccc1` [Compound 9, N-(4-(5-(difluoromethyl)-1,3,4-oxadiazol-2-yl)-2-fluorobenzyl)-N-phenylpyridin-4-carbothioamide], the results for the IC50 in assay [2] and in assay [1] were 138 nM and over 10 µM, respectively. For `CN1CC2(C1)CN(C(=S)N(Cc1ccc(-c3nnc(C(F)F)o3)cc1F)c1ccccc1)C2` [Compound 10, N-(4-(5-(difluoromethyl)-1,3,4-oxadiazol-2-yl)-2-fluorobenzyl)-6-methyl-N-phenyl-2,6-diazaspiro[3.3]heptan-2-carbothioamide], in that order: 45 nM and over 10 µM. In the case of `Fc1cc(-c2nnc(C(F)F)o2)ccc1CN(C(=S)N1CC2(C1)CN(C1COC1)C2)c1ccccc1` [Compound 11, N-(4-(5-(difluoromethyl)-1,3,4-oxadiazol-2-yl)-2-fluorobenzyl)-6-(oxetan-3-yl)-N-phenyl-2,6-diazaspiro[3.3]heptan-2-carbothioamide], the figures for the IC50 in assay [2] and in assay [1] were 50 nM and over 10 µM, respectively. The corresponding values for `CN1CC2(C1)CN(C(=S)N(Cc1ccc(-c3nnc(C(F)F)o3)cc1F)c1ccc(F)cc1F)C2` [Compound 12, N-(4-(5-(difluoromethyl)-1,3,4-oxadiazol-2-yl)-2-fluorobenzyl)-N-(2,4-difluorophenyl)-6-methyl-2,6-diazaspiro[3.3]heptan-2-carbothioamide] are 135 nM and over 10 µM. The corresponding values for `CN1CC2(C1)CN(C(=S)N(Cc1ccc(-c3nnc(C(F)F)o3)cc1F)c1ccc(F)c(F)c1)C2` [Compound 13, N-(4-(5-(difluoromethyl)-1,3,4-oxadiazol-2-yl)-2-fluorobenzyl)-N-(3,4-difluorophenyl)-6-methyl-2,6-diazaspiro[3.3]heptan-2-carbothioamide] are 76 nM and over 10 µM. For `CN1CC2(C1)CN(C(=S)N(Cc1ccc(-c3nnc(C(F)F)o3)cc1)c1cccc(F)c1)C2` [Compound 14, N-(4-(5-(difluoromethyl)-1,3,4-oxadiazol-2-yl)benzyl)-N-(3-fluorophenyl)-6-methyl-2,6-diazaspiro[3.3]heptan-2-carbothioamide], in that order: 39 nM and over 10 µM. `Fc1cccc(N(Cc2ccc(-c3nnc(C(F)F)o3)cc2)C(=S)N2CC3(C2)CN(C2COC2)C3)c1` [Compound 15, N-(4-(5-(difluoromethyl)-1,3,4-oxadiazol-2-yl)benzyl)-N-(3-fluorophenyl)-6-(oxetan-3-yl)-2,6-diazaspiro[3.3]heptan-2-carbothioamide]: the IC50 in assay [2] is 54 nM; in assay [1], over 10 µM. For `CC(C)N1CC2(CN(C(=S)N(Cc3ccc(-c4nnc(C(F)F)o4)cc3)c3cccc(F)c3)C2)C1` [Compound 16, N-(4-(5-(difluoromethyl)-1,3,4-oxadiazol-2-yl)benzyl)-N-(3-fluorophenyl)-6-isopropyl-2,6-diazaspiro[3.3]heptan-2-carbothioamide], in that order: 63 nM and over 10 µM.

On to `CN1CC2(C1)CN(C(=S)N(Cc1ccc(-c3nnc(C(F)F)o3)cc1F)c1ccc(F)cc1)C2` [Compound 17, N-(4-(5-(difluoromethyl)-1,3,4-oxadiazol-2-yl)-2-fluorobenzyl)-N-(4-fluorophenyl)-6-methyl-2,6-diazaspiro[3.3]heptan-2-carbothioamide], for which the IC50 in assay [2] was 41 nM; in assay [1], over 10 µM.

Turning to `CC(C)N1CC2(CN(C(=S)N(Cc3ccc(-c4nnc(C(F)F)o4)cc3F)c3ccc(F)cc3)C2)C1` [Compound 18, N-(4-(5-(difluoromethyl)-1,3,4-oxadiazol-2-yl)-2-fluorobenzyl)-N-(4-fluorophenyl)-6-isopropyl-2,6-diazaspiro[3.3]heptan-2-carbothioamide], the IC50 in assay [2] is 61 nM; in assay [1] it was over 10 µM. In the case of `Fc1ccc(N(Cc2ccc(-c3nnc(C(F)F)o3)cc2F)C(=S)N2CC3(C2)CN(C2COC2)C3)cc1` [Compound 19, N-(4-(5-(difluoromethyl)-1,3,4-oxadiazol-2-yl)-2-fluorobenzyl)-N-(4-fluorophenyl)-6-(oxetan-3-yl)-2,6-diazaspiro[3.3]heptan-2-carbothioamide], the figures for the IC50 in assay [2] and in assay [1] were 54 nM and over 10 µM, respectively. For `CN1CC2(C1)CN(C(=S)N(Cc1ccc(-c3nnc(C(F)F)o3)cc1)c1ccc(F)cc1)C2` [Compound 20, N-(4-(5-(difluoromethyl)-1,3,4-oxadiazol-2-yl)benzyl)-N-(4-fluorophenyl)-6-methyl-2,6-diazaspiro[3.3]heptan-2-carbothioamide], in that order: 60 nM and over 10 µM. Take `CC(C)N1CC2(CN(C(=S)N(Cc3ccc(-c4nnc(C(F)F)o4)cc3)c3ccc(F)cc3)C2)C1` [Compound 21, N-(4-(5-(difluoromethyl)-1,3,4-oxadiazol-2-yl)benzyl)-N-(4-fluorophenyl)-6-isopropyl-2,6-diazaspiro[3.3]heptan-2-carbothioamide]: the IC50 is 70 nM in assay [2] and over 10 µM in assay [1]. For the compound `Fc1ccc(N(Cc2ccc(-c3nnc(C(F)F)o3)cc2)C(=S)N2CC3(C2)CN(C2COC2)C3)cc1` [Compound 22, N-(4-(5-(difluoromethyl)-1,3,4-oxadiazol-2-yl)benzyl)-N-(4-fluorophenyl)-6-(oxetan-3-yl)-2,6-diazaspiro[3.3]heptan-2-carbothioamide], the IC50 is 83 nM in assay [2] and over 10 µM in assay [1]. The corresponding values for `CN1CC2(C1)CN(C(=S)N(Cc1ccc(-c3nnc(C(F)F)o3)cc1F)c1ccc(Cl)c(Cl)c1)C2` [Compound 23, N-(3,4-dichlorophenyl)-N-(4-(5-(difluoromethyl)-1,3,4-oxadiazol-2-yl)-2-fluorobenzyl)-6-methyl-2,6-diazaspiro[3.3]heptan-2-carbothioamide] are 62 nM and over 10 µM. In the case of `Fc1ccc(N(Cc2ccc(-c3nnc(C(F)F)o3)cc2F)C(=S)N2CC3(COC3)C2)cc1F` [Compound 35, N-(4-(5-(difluoromethyl)-1,3,4-oxadiazol-2-yl)-2-fluorobenzyl)-N-(3,4-difluorophenyl)-2-oxa-6-azaspiro[3.3]heptan-6-carbothioamide], the IC50 in assay [1] was over 10 µM. The compound `CN1C[C@@H]2C[C@H]1CN2C(=S)N(Cc1ccc(-c2nnc(C(F)F)o2)cc1F)c1ccc(F)c(F)c1` [Compound 42, (1S,4S)—N-(4-(5-(difluoromethyl)-1,3,4-oxadiazol-2-yl)-2-fluorobenzyl)-N-(3,4-difluorophenyl)-5-methyl-2,5-diazabicyclo[2.2.1]heptan-2-carbothioamide] came in with an IC50 in assay [1] of over 10 µM.
